BindingDB's records for doi:10.1021/bi4011286 (University of Michigan, 2013)

Key:
DNA primase [1] = molecular target: T1, DNA primase (Bacillus anthracis, UniProt A0A6L8PXB3); test: Quatitative Inhibition Analysis Assay; conditions: pH 8.8
T1 sequence (A0A6L8PXB3 whole entry): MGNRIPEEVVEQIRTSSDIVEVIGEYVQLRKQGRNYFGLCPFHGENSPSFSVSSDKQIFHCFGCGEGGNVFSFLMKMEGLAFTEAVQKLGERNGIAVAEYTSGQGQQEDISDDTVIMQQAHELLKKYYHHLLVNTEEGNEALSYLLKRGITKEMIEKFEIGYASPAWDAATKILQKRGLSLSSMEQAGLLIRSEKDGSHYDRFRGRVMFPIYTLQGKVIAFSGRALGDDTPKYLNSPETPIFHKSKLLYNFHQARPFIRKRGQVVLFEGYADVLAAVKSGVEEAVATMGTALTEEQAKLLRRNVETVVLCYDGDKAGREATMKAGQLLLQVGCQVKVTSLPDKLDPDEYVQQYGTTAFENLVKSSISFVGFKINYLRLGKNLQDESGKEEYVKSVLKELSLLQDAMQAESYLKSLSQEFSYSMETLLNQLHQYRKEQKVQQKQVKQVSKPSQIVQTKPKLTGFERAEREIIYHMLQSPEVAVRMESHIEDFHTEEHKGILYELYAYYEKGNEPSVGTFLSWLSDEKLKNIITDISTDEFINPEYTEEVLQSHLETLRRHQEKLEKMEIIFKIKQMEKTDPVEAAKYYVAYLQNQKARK
Experimental: (§1) The reaction mixture contained DNA (1.25 uM or as specified), NTP (110 uM or as specified), 50 mM NaCl, 150 mM potassium glutamate, buffer [20 mM CAPS (pH 8.8) or as specified], and divalent metals (2 mM Mn2+ and 1 mM Mg2+). The assay was performed in 96-well plates with 4 uM Ba DnaG.

DNA primase [2] = molecular target: T2, DNA primase (Mycobacterium tuberculosis (strain CDC 1551 / Oshkosh), UniProt P9WNW0); test: Quatitative Inhibition Analysis Assay; conditions: pH 8.8
T2 sequence (P9WNW0 whole entry): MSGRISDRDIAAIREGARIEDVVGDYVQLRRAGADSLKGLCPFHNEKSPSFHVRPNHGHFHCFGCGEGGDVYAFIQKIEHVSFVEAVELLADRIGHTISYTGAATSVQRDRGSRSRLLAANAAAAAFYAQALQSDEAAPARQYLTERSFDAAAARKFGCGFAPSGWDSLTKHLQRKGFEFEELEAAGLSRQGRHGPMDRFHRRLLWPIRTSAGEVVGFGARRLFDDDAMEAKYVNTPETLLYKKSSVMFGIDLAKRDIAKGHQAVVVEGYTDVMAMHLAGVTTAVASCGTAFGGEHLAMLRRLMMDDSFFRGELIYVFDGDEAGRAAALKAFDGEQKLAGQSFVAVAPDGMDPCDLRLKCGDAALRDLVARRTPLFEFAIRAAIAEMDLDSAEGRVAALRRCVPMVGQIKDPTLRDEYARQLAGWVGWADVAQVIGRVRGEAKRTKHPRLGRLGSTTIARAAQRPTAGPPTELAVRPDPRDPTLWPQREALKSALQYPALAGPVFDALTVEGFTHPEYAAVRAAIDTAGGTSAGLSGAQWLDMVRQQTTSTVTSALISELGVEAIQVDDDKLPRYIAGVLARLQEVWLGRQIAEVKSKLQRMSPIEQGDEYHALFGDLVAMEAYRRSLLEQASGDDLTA
Experimental: as §1

SMILES	IC50 (DNA primase [1])	IC50 (DNA primase [2])
Cc1ccc(C(=O)Nc2ccc(S(=O)(=O)O)c3cc(S(=O)(=O)O)cc(S(=O)(=O)O)c23)cc1NC(=O)c1cccc(NC(=O)Nc2cccc(C(=O)Nc3cc(C(=O)Nc4ccc(S(=O)(=O)O)c5cc(S(=O)(=O)O)cc(S(=O)(=O)O)c45)ccc3C)c2)c1 [Suramin hexasodium]	8.2 µM	
O=c1oc2c(O)c(O)cc3c(=O)oc4c(O)c(O)cc1c4c23 [Elagic Acid]	> 100 µM	
C[C@H]1COc2c(N3CCN(C)CC3)c(F)cc3c(=O)c(C(=O)O)cn1c23 [Levaquin]	75 µM	
COc1cccc2c1C(=O)c1c(O)c3c(c(O)c1C2=O)C[C@@](O)(C(=O)CO)C[C@@H]3O[C@H]1C[C@H](N)[C@H](O)[C@H](C)O1 [Adriamycin]	4.4 µM	9.3 µM
CCN(CC)CCOc1ccc2c(c1)C(=O)c1cc(OCCN(CC)CC)ccc1-2 [Amixin IC]	7.1 µM	69 µM
